Reference: patent US20050251869A1, “Animal model for raising HDL-cholesterol with niacin” (priority 2004, published 2005)
Read-outs that look alike come from different tables or passages of the source.

How the values were obtained:
[1] = system: wild type C57BI/6J control mice; settings: for change in HDL-C compared with untreated WT mice: 1% niacin in diet
Excerpt: (§1) Materials: The mice used in these studies were pathogen-free C57BI/6J mice of the following genotypes: (1) wild type; (2) hemizygous human CETP-transgenic (hCETP-tg); (3) hemizygous human apoB100-transgenic, and 4) hemizygous human CETP and apoB100 dual-transgenic mice. The transgenic mice were purchased from Taconic Laboratories, Germantown, N.Y., where they were generated by introduction of genomic DNA fragments that drive expression of human CETP and/or apoB100 in the mouse liver (8-10).
(§2) Methods: Male mice (hCETP-tg and wild type C57BI/6J control mice; ˜10 weeks of age; 5-7/group) were used in this study. The mice were fed a normal rodent chow diet (Purina 7012) along with varying levels of niacin (milled with diet, expressed as % by weight of diet). They were housed with normal lighting and were allowed access to food and water ad lib. Blood samples were obtained by retro-orbital plexus at one, two and three weeks of treatment. After the fourth week of treatment, the mice were fasted for four hours and then euthanized. After euthanization, blood samples were collected by cardiac puncture. Serum lipids (total cholesterol, HDL-cholesterol, TG and FFA, and lipoprotein profiles) were determined. Serum samples from four weeks of treatment were also measured for CETP enzyme activity.

[2] = system: hemizygous human-CETP/ApoB100 dual transgenic mice
Excerpt: Methods: This example is a study of the lipid modulating effect of niacin in human CETP and Apo-B100 dual transgenic mice. These mice have a more human-like lipoprotein profile than WT mice, with a lower HDUnon-HDL-C ratio.
Mice (hemizygous human-CETP/ApoB100 dual transgenic mice, ˜10 weeks of age, 7-8/group) were fed a normal rodent chow diet (Purina 7012) along with varying levels of niacin (milled with the feed). They were housed with normal lighting and were allowed access to food and water ad lib. Blood samples were obtained by retro-orbital plexus after one week of treatment. After two weeks of treatment, the mice were fasted for four hours and then euthanized. Blood samples were collected by cardiac puncture. Serum lipids (total cholesterol, HDL-cholesterol, TG and FFA, and lipoprotein profiles) were determined.

[3] = system: human ApoB 100 transgenic mice; settings: experiments similar to Examples 1 and 2
Excerpt: as §1

[4] = system: human-CETP/human-apoA1 dual-transgenic mice; settings: 1% niacin in diet, one week
Excerpt: In addition, hemizygous human-CETP/human-apolipoprotein A1 dual-transgenic mice were generated by cross-breeding homozygous human-CETP transgenic male mice, purchased from Taconic, with homozygous human-apolipoprotein A1 transgenic female mice, purchased from Jackson Laboratories.
Methods: Mice used in this study express both human CETP and human apolipoprotein A1 genes. The mice were generated by cross-breeding homozygous human-CETP transgenic male mice with homozygous female human-apolipoprotein A1-transgenic mice. Female mice (˜10 weeks of age, 10/group) were fed a normal rodent chow diet (Purina 7012) with or without 1% niacin (milled with the feed). They were housed with normal lighting and were allowed access to food and water ad lib. After seven days of treatment, the mice were fasted for four hours and then euthanized. Blood samples were collected by cardiac puncture. Serum lipids (total cholesterol, HDL-cholesterol, TG and FFA, and lipoprotein profiles) were determined.

hCETP-tg mice = settings: for increase of HDL-C / reduction of TG: 1% niacin in diet
Excerpt: as §2
Blood samples were obtained by retro-orbital plexus after one week of treatment, as in Example 1. After two weeks of treatment, the mice were fasted for four hours and then euthanized. Blood samples were collected by cardiac puncture. Serum lipids (total cholesterol, HDL-cholesterol, total triglyceride and FFA) were determined.

[5] = system: hemizygous human CETP-transgenic (hCETP-tg) mice; assay: Example 1: four-week niacin-in-diet study, serum lipids, hCETP-tg mice; type: in vivo, mouse; settings: for change in HDL-C compared with untreated h-CETP-tg mice: 1% niacin in diet
Excerpt: as §1, §2

[6] = one week of treatment with niacin in diet
[7] = size exclusion chromatography, after two weeks of treatment
[8] = lipoprotein profiles by size exclusion chromatography
[9] = hCETP-tg mice, niacin in diet, appears dose-dependent

## O=C(O)c1cccnc1 [niacin, nicotinic acid]
[1]; 1 week
  change in HDL-C compared with untreated WT mice: −9%
[1]; 2 weeks
  change in HDL-C compared with untreated WT mice: −17%
[1]; 3 weeks
  change in HDL-C compared with untreated WT mice: −13%
[1]; 4 weeks
  change in HDL-C compared with untreated WT mice: −7%
[1]; wild-type control mice, niacin in diet
  serum lipids, including TG, total cholesterol, HDL-C, non-HDL-C, and FFA: broad reduction
[2]; 0.1% niacin in diet, two weeks
  increase in HDL-C: 41%
[2]; 0.3% niacin in diet, two weeks
  decrease in HDL-C: 5%
[2]; 1% niacin in diet, two weeks
  increase in HDL-C: 15%
[2]; [6]
  TC and TG: decrease
  amount of HDL-C: without a significant change
[2]; [7]
  TG in the VLDL and LDL fractions: decrease
  cholesterol in the HDL fractions: increase
  cholesterol in the LDL fractions: decrease
[3]
  level of HDL-C: does not raise
[4]; female mice
  elevation of HDL-C: ~38%
  reduction of TG: 53%
  reduction of non-HDL-C: 39%
[4]; male mice
  Non-HDL-C: did not change significantly
  elevation of HDL-C: 27%
  reduction of TG: 36%
hCETP-tg mice; one week of treatment
  increase of HDL-C: 35%
  reduction of TG: 44%
hCETP-tg mice; two weeks of treatment
  increase of HDL-C: 37%
  reduction of TG: 45%
hCETP-tg mice; [8]
  HDL particle size: without significant change
  TG contents of VLDL, LDL and HDL particles: all reduced
  cholesterol content in the HDL particles: increase
  cholesterol content of the LDL and VLDL particles: reduced
[5]; 1 week
  change in HDL-C compared with untreated h-CETP-tg mice: +40%
[5]; 2 weeks
  change in HDL-C compared with untreated h-CETP-tg mice: +38%
[5]; 3 weeks
  change in HDL-C compared with untreated h-CETP-tg mice: +37%
[5]; 4 weeks
  change in HDL-C compared with untreated h-CETP-tg mice: +23%
[5]; [9]
  FFA: reduction
  HDL-cholesterol: increase
  TG: reduction
  non-HDL cholesterol: reduction
[5]; [8]
  TG in the VLDL fractions: decline
  cholesterol in the HDL fractions: rise
